Here are results for 28 molecules from US11970497B2, “Tricyclic AKR1C3 dependent KARS inhibitors” (Novartis AG, priority 2019, dated 2024).

The test system of the test is H460 (NRF2 pathway mutant cell line with high AKR1C3 expression). Kind of test: In vitro cell proliferation assay (CellTiter-Glo), H460. It counts as cell-based. Particulars: Homo sapiens, NCI-H460, 72 h, read-out: H460 Qualified absolute AC50. The source says: Cellular Proliferation Assay to Assess Compounds Activity in H460 (NRF2 Pathway Mutant Cell Line with High AKR1C3 Expression) and Hara (NRF2 Pathway Wild Type Cell Line with Low AKR1C3 Expression).
The cell lines A549 and H460 are NRF2 pathway mutant and specifically contain genetic alterations in KEAP1 (A549: G333C, H460: D236H) (Singh A. et al., 2006 PLoS Medicine 3(10) e420). In these cell lines the NRF2 pathway is constitutively active and these cells express high levels of NRF2 protein and NRF2 pathway target gene AKR1C3. […] They have low AKR1C3 expression.
In Vitro Cell Proliferation Assay
Day 1, for H460 800 cells/well or 40 μL of 2×10^4 cells/mL and for Hara 2000 cells/well or 40 μL of 5×10^4 cells/mL medium (RPMI-1640 supplemented with 10% fetal bovine serum and 1% penicillin/streptomycin) were seeded into 384-well tissue culture plates. Day 2, compounds were serially diluted 1:5 to generate 8 point dose response curves and added to cells for a final top concentration of 10 μM. DMSO (1%) control and MG132 (30 μM) controls are added in columns 23 and 24 respectively on each plate for positive and negative control. After incubation for 3 days at 37° C./5% CO2, 30 μl of CellTiter-Glo reagent (Promega) was added and the plates were incubated for 10 min on plate shaker. The amount of luminescence was determined using a Perkin Elmer Envision plate reader. CellTiter-Glo luminescence values of cells treated with DMSO and MG132 controls were used to normalize the data and calculate percentage activity and AC50s of compounds using the Helios Software suite.
A general note: Cellular ATP, detected with luciferase, serves as a proxy for viable cell number.

Setting [1] is: H460 cells, 3 days, CellTiter-Glo, top concentration 10 μM.

Like-named read-outs stand apart in the source and are kept apart here.

Broadly, the AC50 is the concentration giving half of the maximal activity seen. As for `CC(O)CNC(=O)c1cc(CNC(=O)N2CCC3(CC2)CC(=O)c2cc(F)ccc2N3C)ccc1F` (racemic) [Example 88, 6′-fluoro-N-(4-fluoro-3-((2-hydroxypropyl)carbamoyl)benzyl)-1′-methyl-4′-oxo-3′,4′-dihydro-1′H-spiro[piperidine-4,2′-quinoline]-1-carboxamide], under setting [1], the half-maximal activity concentration (AC50) was found to be 421 nM. Take `Cc1occc1CNC(=O)N1CCC2(CC1)C[C@@H](O)c1cc(F)ccc1N2` (single isomer, unassigned) [Example 169]: the concentration at half-maximal activity (AC50) under setting [1] came to 8 nM. As to `Nc1ccc(CNC(=O)N2CCC3(CC2)C[C@@H](O)c2cc(F)ccc2N3)cc1F` (single isomer, unassigned) [Example 170a], under setting [1], the half-maximal activity concentration (AC50) amounted to 11 nM. For the molecule `Nc1ccc(CNC(=O)N2CCC3(CC2)C[C@H](O)c2cc(F)ccc2N3)cc1F` (single isomer, unassigned) [Example 170b], the concentration at half-maximal activity (AC50) under setting [1] is at least 17300 nM.

Take `Cc1ccc(CNC(=O)N2CCC3(CC2)CC(=O)c2cc(F)ccc2N3)o1` [Example 1, 6′-fluoro-N-((5-methylfuran-2-yl)methyl)-4′-oxo-3′,4′-dihydro-1′H-spiro[piperidine-4,2′-quinoline]-1-carboxamide]: the AC50 under setting [1] came to 143 nM. Turning to `O=C1CC2(CCN(C(=O)NCc3ccc(OP(=O)(O)O)cc3)CC2)Nc2ccc(F)cc21` [Example 4, 4-((6′-fluoro-4′-oxo-3′,4′-dihydro-1′H-spiro[piperidine-4,2′-quinoline]-1-carboxamido)methyl)phenyl dihydrogen phosphate], the AC50 was 6 nM.

In the case of `Cc1ccc(CNC(=O)N2CCC3(CC2)CC(=O)c2cc(F)ccc2N3C)o1` [Example 7, 6′-fluoro-1′-methyl-N-((5-methylfuran-2-yl)methyl)-4′-oxo-3′,4′-dihydro-1′H-spiro[piperidine-4,2′-quinoline]-1-carboxamide], under setting [1], the AC50 stood at 10 nM.

Turning to `O=C1CC2(CCN(C(=O)NCc3ccc(Cl)o3)CC2)Nc2ccc(F)cc21` [Example 22, N-((5-chlorofuran-2-yl)methyl)-6′-fluoro-4′-oxo-3′,4′-dihydro-1′H-spiro[piperidine-4,2′-quinoline]-1-carboxamide], the AC50 under setting [1] was 37 nM. On to `CN1c2ccc(F)cc2C(=O)CC12CCN(C(=O)NCc1ccc(F)c(NCC3COCCO3)c1)CC2` (stereo not shown) [Example 31, N-(3-(((1,4-dioxan-2-yl)methyl)amino)-4-fluorobenzyl)-6′-fluoro-1′-methyl-4′-oxo-3′,4′-dihydro-1′H-spiro[piperidine-4,2′-quinoline]-1-carboxamide], for which the AC50 under setting [1] came out at 64 nM. On the same count and under the same terms, the value for `O=C(NCc1ccc(CO)cc1)c1cc(CNC(=O)N2CCC3(CC2)CC(=O)c2cc(F)ccc2N3)ccc1F` [Example 32, 6′-fluoro-N-(4-fluoro-3-((4-(hydroxymethyl)benzyl)carbamoyl)benzyl)-4′-oxo-3′,4′-dihydro-1′H-spiro[piperidine-4,2′-quinoline]-1-carboxamide] was 64 nM; that for `Cc1coc(C)c1CNC(=O)N1CCC2(CC1)CC(=O)c1cc(F)ccc1N2` [Example 34, N-((2,4-dimethylfuran-3-yl)methyl)-6′-fluoro-4′-oxo-3′,4′-dihydro-1′H-spiro[piperidine-4,2′-quinoline]-1-carboxamide] was 75 nM. Take `O=C1CC2(CCN(C(=O)NCc3cn[nH]c3)CC2)Nc2ccc(F)cc21` [Example 37, N-((1H-pyrazol-4-yl)methyl)-6′-fluoro-4′-oxo-3′,4′-dihydro-1′H-spiro[piperidine-4,2′-quinoline]-1-carboxamide]: the AC50 under setting [1] stood at 81 nM. With `CN1CCN(C(=O)C(C)(C)CNc2cc(CNC(=O)N3CCC4(CC3)CC(=O)c3cc(F)ccc3N4C)ccc2F)CC1` [Example 44, N-(3-((2,2-dimethyl-3-(4-methylpiperazin-1-yl)-3-oxopropyl)amino)-4-fluorobenzyl)-6′-fluoro-1′-methyl-4′-oxo-3′,4′-dihydro-1′H-spiro[piperidine-4,2′-quinoline]-1-carboxamide], under setting [1], the AC50 amounted to 99 nM. Same read-out and setting: the value for `COCCNC(=O)c1cc(CNC(=O)N2CCC3(CC2)CC(=O)c2cc(F)ccc2N3C)ccc1F` [Example 58, 6′-fluoro-N-(4-fluoro-3-((2-methoxyethyl)carbamoyl)benzyl)-1′-methyl-4′-oxo-3′,4′-dihydro-1′H-spiro[piperidine-4,2′-quinoline]-1-carboxamide] was 181 nM; that for `Cc1occc1CNC(=O)N1CCC2(CC1)CC(=O)c1cc(F)ccc1N2` [Example 59, 6′-fluoro-N-((2-methylfuran-3-yl)methyl)-4′-oxo-3′,4′-dihydro-1′H-spiro[piperidine-4,2′-quinoline]-1-carboxamide] was 185 nM. Consider `O=C(NC1CC(O)C1)c1cc(CNC(=O)N2CCC3(CC2)CC(=O)c2cc(F)ccc2N3)ccc1F` (stereo not shown) [Example 60, 6′-fluoro-N-(4-fluoro-3-((3-hydroxycyclobutyl)carbamoyl)benzyl)-4′-oxo-3′,4′-dihydro-1′H-spiro[piperidine-4,2′-quinoline]-1-carboxamide], for which, under setting [1], the concentration at half-maximal activity (AC50) came out at 198 nM. Still for that read-out and setting: the value for `Cc1cc(CNC(=O)N2CCC3(CC2)CC(=O)c2cc(F)ccc2N3)n[nH]1` [Example 72, 6′-fluoro-N-((5-methyl-1H-pyrazol-3-yl)methyl)-4′-oxo-3′,4′-dihydro-1′H-spiro[piperidine-4,2′-quinoline]-1-carboxamide] was 282 nM. With `Cc1c(CNC(=O)N2CCC3(CC2)CC(=O)c2cc(F)ccc2N3)ccc(F)c1C(N)=O` [Example 79, N-(3-carbamoyl-4-fluoro-2-methylbenzyl)-6′-fluoro-4′-oxo-3′,4′-dihydro-1′H-spiro[piperidine-4,2′-quinoline]-1-carboxamide], the half-maximal activity concentration (AC50) under setting [1] amounted to 345 nM.

In the case of `CN(C)CCNC(=O)c1cc(CNC(=O)N2CCC3(CC2)CC(=O)c2cc(F)ccc2N3)ccc1F` [Example 81, N-(3-((2-(dimethylamino)ethyl)carbamoyl)-4-fluorobenzyl)-6′-fluoro-4′-oxo-3′,4′-dihydro-1′H-spiro[piperidine-4,2′-quinoline]-1-carboxamide], the AC50 under setting [1] turned out to be 352 nM. Consider `CN1c2ccc(F)cc2C(=O)CC12CCN(C(=O)NCc1ccc(F)c(NCCN3CCCC3=O)c1)CC2` [Example 90, 6′-fluoro-N-(4-fluoro-3-((2-(2-oxopyrrolidin-1-yl)ethyl)amino)benzyl)-1′-methyl-4′-oxo-3′,4′-dihydro-1′H-spiro[piperidine-4,2′-quinoline]-1-carboxamide], for which the AC50 under setting [1] was determined as 443 nM. Take `O=C1CC2(CCN(C(=O)NCc3ccoc3C(F)(F)F)CC2)Nc2ccc(F)cc21` [Example 96, 6′-fluoro-4′-oxo-N-((2-(trifluoromethyl)furan-3-yl)methyl)-3′,4′-dihydro-1′H-spiro[piperidine-4,2′-quinoline]-1-carboxamide]: the AC50 under setting [1] worked out at 489 nM.

`CN1c2ccc(F)cc2C(=O)CC12CCN(C(=O)NCc1ccc(F)c(C(=O)NCC(C)(C)O)c1)CC2` [Example 97, 6′-fluoro-N-(4-fluoro-3-((2-hydroxy-2-methylpropyl)carbamoyl)benzyl)-1′-methyl-4′-oxo-3′,4′-dihydro-1′H-spiro[piperidine-4,2′-quinoline]-1-carboxamide]: under setting [1], the AC50 was determined as 491 nM. For `O=C(NCC(=O)C1CC1)c1cc(CNC(=O)N2CCC3(CC2)CC(=O)c2cc(F)ccc2N3)ccc1F` [Example 100, N-(3-((2-cyclopropyl-2-oxoethyl)carbamoyl)-4-fluorobenzyl)-6′-fluoro-4′-oxo-3′,4′-dihydro-1′H-spiro[piperidine-4,2′-quinoline]-1-carboxamide], the half-maximal activity concentration (AC50) under setting [1] worked out at 518 nM. For `CCc1noc(C)c1CNC(=O)N1CCC2(CC1)CC(=O)c1cc(F)ccc1N2` [Example 106, N-((3-ethyl-5-methylisoxazol-4-yl)methyl)-6′-fluoro-4′-oxo-3′,4′-dihydro-1′H-spiro[piperidine-4,2′-quinoline]-1-carboxamide], the AC50 under setting [1] was determined as 598 nM. For `Cc1cc(CNC(=O)N2CCC3(CC2)CC(=O)c2cc(F)ccc2N3)c(C)o1` [Example 110, N-((2,5-dimethylfuran-3-yl)methyl)-6′-fluoro-4′-oxo-3′,4′-dihydro-1′H-spiro[piperidine-4,2′-quinoline]-1-carboxamide], the AC50 under setting [1] is 700 nM. With `CN1c2ccc(F)cc2C(=O)CC12CCN(C(=O)NCc1ccc(F)c(NCC(C)(C)C(=O)N3CCOCC3)c1)CC2` [Example 113], the half-maximal activity concentration (AC50) under setting [1] was determined as 846 nM. On to `Cc1ncc(CNC(=O)c2cc(CNC(=O)N3CCC4(CC3)CC(=O)c3cc(F)ccc3N4)ccc2F)o1` [Example 121, 6′-fluoro-N-(4-fluoro-3-(((2-methyloxazol-5-yl)methyl)carbamoyl)benzyl)-4′-oxo-3′,4′-dihydro-1′H-spiro[piperidine-4,2′-quinoline]-1-carboxamide], for which the half-maximal activity concentration (AC50) under setting [1] was 1080 nM.

For `O=C(NC/C=C/CO)c1cc(CNC(=O)N2CCC3(CC2)CC(=O)c2cc(F)ccc2N3)ccc1F` [Example 122, (E)-6′-fluoro-N-(4-fluoro-3-((4-hydroxybut-2-en-1-yl)carbamoyl)benzyl)-4′-oxo-3′,4′-dihydro-1′H-spiro[piperidine-4,2′-quinoline]-1-carboxamide], the half-maximal activity concentration (AC50) under setting [1] was 1110 nM.
